Among the data in patent US10023559B2 (Hoffmann-La Roche Inc., priority 2014, dated 2018) are Ki values, retold here.

One test deals with rat TAAR1 (Rattus norvegicus (Rat), UniProt Q923Y9). In words: Radioligand binding assay on rat TAAR1. The note with it: read-out: Ki(μM) rat; rat TAAR1, HEK-293 membranes, second value of cell pair mouse/rat.
For another test, the target named is mouse TAAR1 (Mus musculus (Mouse), UniProt Q923Y8). As to the kind of experiment: Radioligand binding assay on mouse TAAR1.
mouse TAAR1, sequence (Q923Y8 whole entry): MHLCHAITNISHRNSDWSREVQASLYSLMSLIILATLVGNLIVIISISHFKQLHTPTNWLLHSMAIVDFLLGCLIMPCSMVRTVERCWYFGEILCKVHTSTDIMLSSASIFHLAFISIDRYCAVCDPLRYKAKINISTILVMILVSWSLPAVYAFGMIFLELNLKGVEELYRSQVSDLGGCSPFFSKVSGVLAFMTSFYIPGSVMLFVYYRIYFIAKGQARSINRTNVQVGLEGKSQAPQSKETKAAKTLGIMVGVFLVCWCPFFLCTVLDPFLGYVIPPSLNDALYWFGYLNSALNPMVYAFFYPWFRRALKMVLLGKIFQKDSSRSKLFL

rat TAAR1, sequence (Q923Y9 whole entry): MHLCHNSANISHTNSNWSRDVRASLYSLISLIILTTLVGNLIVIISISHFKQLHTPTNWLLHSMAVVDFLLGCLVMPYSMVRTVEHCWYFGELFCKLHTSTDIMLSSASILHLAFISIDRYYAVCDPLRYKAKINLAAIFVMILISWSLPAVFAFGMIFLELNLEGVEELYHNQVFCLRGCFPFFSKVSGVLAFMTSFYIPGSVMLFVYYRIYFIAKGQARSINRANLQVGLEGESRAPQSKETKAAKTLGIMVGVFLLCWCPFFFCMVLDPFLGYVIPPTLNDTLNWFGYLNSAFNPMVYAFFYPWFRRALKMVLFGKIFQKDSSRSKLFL
Method for mouse TAAR1: Membrane Preparation and Radioligand Binding.
HEK-293 cells stably expressing mouse TAAR1 were maintained at 37° C. and 5% CO2 in DMEM high glucose medium, containing fetal calf serum (10%, heat inactivated for 30 min at 56° C.), penicillin/streptomycin (1%), and 375 μg/ml geneticin (Gibco). Cells were released from culture flasks using trypsin/EDTA, harvested, washed twice with ice-cold PBS (without Ca^2+ and Mg^2+), pelleted at 1,000 rpm for 5 min at 4° C., frozen and stored at −80° C. Frozen pellets were suspended in 20 ml HEPES-NaOH (20 mM, pH 7.4) containing 10 mM EDTA and homogenized with a Polytron (PT 6000, Kinematica) at 14,000 rpm for 20 s. The homogenate was centrifuged at 48,000×g for 30 min at 4° C. Subsequently, the supernatant was removed and discarded, and the pellet resuspended in 20 ml HEPES-NaOH (20 mM, pH 7.4) containing 0.1 mM EDTA using the Polytron (20 s at 14,000 rpm). This procedure was repeated and the final pellet resuspended in HEPES-NaOH containing 0.1 mM EDTA and homogenized using the Polytron. Typically, aliquots of 2 ml membrane portions were stored at −80° C. With each new membrane batch the dissociation constant (Kd) was determined via a saturation curve. […] Nonspecific binding was defined as the amount of ^3[H]—(S)-4-[(ethyl-phenyl-amino)-methyl]-4,5-dihydro-oxazol-2-ylamine bound in the presence of 10 M unlabeled ligand. All compounds were tested at a broad range of concentrations (10 pM to 10 μM) in duplicates. […] The 96 deep well plates were incubated for 1 hr at 4° C. Incubations were terminated by rapid filtration through Unifilter-96 plates (Packard Instrument Company) and glass filters GF/C (Perkin Elmer) presoaked for 1 hr in polyethylenimine (0.3%) and washed 3 times with 1 ml of cold binding buffer. After addition of 45 μl of Microscint 40 (PerkinElmer) the Unifilter-96 plate was sealed and after 1 hr the radioactivity counted using a TopCount Microplate Scintillation Counter (Packard Instrument Company).

For the compound `COc1ccc(NC(=O)Nc2ccc(CC3CNC3)cc2)cc1` [Example 114, 1-[4-(azetidin-3-ylmethyl)phenyl]-3-(4-methoxyphenyl)urea], the values for the Ki on rat TAAR1 and on mouse TAAR1 were 0.156 µM and 160 nM, respectively.

For `O=C(Nc1ccc(C[C@@H]2CCN2)cc1)c1ccc(Cl)cc1` [Example 72, N-[4-[[(2R)-azetidin-2-yl]methyl]phenyl]-4-chloro-benzamide], the Ki was determined as 0.0686 µM at rat TAAR1 and 3.9 nM on mouse TAAR1.

As to `O=C(Nc1ccc(OC2CNC2)cc1)c1cnc(C2CC2)nc1` [Example 14, N-(4-(azetidin-3-yloxy)phenyl)-2-cyclopropylpyrimidine-5-carboxamide], the Ki came out at 0.1 µM at rat TAAR1 and 14.9 nM on mouse TAAR1.

As for `O=C(Nc1ccc(OC2CNC2)cc1)c1cc(C(F)(F)F)n[nH]1` [Example 24, N-(4-(azetidin-3-yloxy)phenyl)-3-(trifluoromethyl)-1H-pyrazole-5-carboxamide], the figures for the Ki on rat TAAR1 and at mouse TAAR1 were 0.0701 µM and 32.8 nM, respectively.

Consider `CCn1cc(Cl)c(C(=O)Nc2ccc(OC3CNC3)cc2)n1` [Example 22, N-[4-(azetidin-3-yloxy)phenyl]-4-chloro-1-ethyl-pyrazole-3-carboxamide], for which the Ki worked out at 0.0672 µM on rat TAAR1 and 2030 nM on mouse TAAR1.

Consider `O=C(Nc1ccc(OC2CNC2)cc1)c1[nH]nc(C(F)(F)F)c1Cl` [Example 40, N-[4-(azetidin-3-yloxy)phenyl]-4-chloro-3-(trifluoromethyl)-1H-pyrazole-5-carboxamide], for which the Ki worked out at 0.0142 µM at rat TAAR1 and 2.8 nM at mouse TAAR1.

Turning to `Cn1nc(C(F)(F)F)cc1C(=O)Nc1ccc(OC2CNC2)cc1` [Example 17, N-[4-(azetidin-3-yloxy)phenyl]-2-methyl-5-(trifluoromethyl)pyrazole-3-carboxamide], the values for the Ki at rat TAAR1 and at mouse TAAR1 were 0.0969 µM and 72.9 nM, respectively.

With `CCOc1ccc(C(=O)Nc2ccc(C[C@@H]3NC[C@@H]3F)cc2)cn1` [Example 128, 6-ethoxy-N-(4-(((2S,3S)-3-fluoroazetidin-2-yl)methyl)phenyl)nicotinamide], the values for the Ki on rat TAAR1 and on mouse TAAR1 were 0.0204 µM and 2.3 nM, respectively.

As to `CCc1n[nH]c(C(=O)Nc2ccc(OC3CNC3)cc2)c1Cl` [Example 41, N-[4-(azetidin-3-yloxy)phenyl]-4-chloro-3-ethyl-1H-pyrazole-5-carboxamide], the Ki is 0.0392 µM on rat TAAR1 and 3.5 nM on mouse TAAR1.

As for `CCc1cc(C(=O)Nc2cc(F)c(C=C3CNC3)c(F)c2)nc(C(F)(F)F)n1` [Example 87, N-(4-(azetidin-3-ylidenemethyl)-3,5-difluorophenyl)-6-ethyl-2-(trifluoromethyl)pyrimidine-4-carboxamide], the Ki at rat TAAR1 is 0.0024 µM; at mouse TAAR1 it was 12.2 nM.

`COc1ccc(NC(=O)Nc2ccc(SC3CNC3)cc2)cc1` [Example 111, 1-[4-(azetidin-3-ylsulfanyl)phenyl]-3-(4-methoxyphenyl)urea]: the values for the Ki at rat TAAR1 and at mouse TAAR1 were 0.139 µM and 161 nM, respectively.

Usually Ki stands for the dissociation constant of the complex between target and ligand, obtained from inhibition or displacement.
